One compound from publication PMC6785188 (ACS chemical neuroscience, 2019) can be followed below.

For orientation: EC50 means the concentration needed to bring the measured effect to its halfway point. One may read the Emax as the maximal effect, on the per cent scale that the assay sets. The term Ki denotes a measure of affinity in units of concentration, obtained from inhibition or displacement. Read a low Ki as tighter binding.

Test [1] deals with T1, D1 (Homo sapiens, UniProt P21728). The test can be described thus: D1R GS-mediated cAMP accumulation GloSensor assay. Type of test: cell-based. Background: cAMP levels reflect the balance of adenylyl cyclase and phosphodiesterase activity.
T1 sequence (P21728 whole entry): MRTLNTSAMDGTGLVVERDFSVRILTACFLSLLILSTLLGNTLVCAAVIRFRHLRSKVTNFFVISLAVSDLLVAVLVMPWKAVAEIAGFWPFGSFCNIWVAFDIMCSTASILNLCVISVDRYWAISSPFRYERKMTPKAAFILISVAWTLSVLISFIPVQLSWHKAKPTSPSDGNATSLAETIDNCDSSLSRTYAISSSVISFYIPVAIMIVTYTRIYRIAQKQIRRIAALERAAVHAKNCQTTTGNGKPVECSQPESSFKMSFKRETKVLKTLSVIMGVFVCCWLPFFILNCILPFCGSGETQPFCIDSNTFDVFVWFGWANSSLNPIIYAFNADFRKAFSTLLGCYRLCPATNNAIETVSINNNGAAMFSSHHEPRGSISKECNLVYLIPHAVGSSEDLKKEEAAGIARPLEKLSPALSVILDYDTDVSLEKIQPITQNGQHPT
The target in test [2] is T1, D1. Kind of test: Radioligand binding affinity assay, D1.
A further test addresses D3 (Homo sapiens, UniProt P35462). Kind of test: Radioligand binding affinity assay, D3.
A further test deals with T2, D4 (Homo sapiens, UniProt P21917).
T2 sequence (P21917 1-419): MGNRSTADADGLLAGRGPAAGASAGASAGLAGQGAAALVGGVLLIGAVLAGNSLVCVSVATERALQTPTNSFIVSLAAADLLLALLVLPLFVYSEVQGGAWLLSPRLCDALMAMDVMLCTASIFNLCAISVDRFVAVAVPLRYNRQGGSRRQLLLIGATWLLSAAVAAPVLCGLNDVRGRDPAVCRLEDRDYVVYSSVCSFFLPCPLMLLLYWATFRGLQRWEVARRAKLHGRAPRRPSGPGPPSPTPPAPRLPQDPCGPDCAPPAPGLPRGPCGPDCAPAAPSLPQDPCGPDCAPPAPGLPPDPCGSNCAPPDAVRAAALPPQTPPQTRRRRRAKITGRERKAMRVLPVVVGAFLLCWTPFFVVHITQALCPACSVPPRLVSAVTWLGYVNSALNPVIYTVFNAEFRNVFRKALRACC
The test can be described thus: Radioligand binding affinity assay, D4.

Another test deals with D5 (Homo sapiens, UniProt P21918). Kind of test: Radioligand binding affinity assay, D5.
Chain of D5 (P21918 whole entry): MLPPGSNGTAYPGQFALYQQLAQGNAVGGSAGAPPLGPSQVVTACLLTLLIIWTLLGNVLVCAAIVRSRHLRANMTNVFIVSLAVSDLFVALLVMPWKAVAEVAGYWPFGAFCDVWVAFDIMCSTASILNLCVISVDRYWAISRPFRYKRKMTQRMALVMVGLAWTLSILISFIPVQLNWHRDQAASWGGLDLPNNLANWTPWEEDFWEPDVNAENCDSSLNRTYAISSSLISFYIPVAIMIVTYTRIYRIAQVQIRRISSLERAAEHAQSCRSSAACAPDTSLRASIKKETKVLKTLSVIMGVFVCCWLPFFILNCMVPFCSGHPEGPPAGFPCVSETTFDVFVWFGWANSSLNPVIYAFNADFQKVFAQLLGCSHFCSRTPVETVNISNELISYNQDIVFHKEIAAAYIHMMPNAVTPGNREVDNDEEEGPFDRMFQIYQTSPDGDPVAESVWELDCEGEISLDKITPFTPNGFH
Another test addresses T3, 5-HT1A (Homo sapiens, UniProt P08908).
T3 sequence (P08908 1-422): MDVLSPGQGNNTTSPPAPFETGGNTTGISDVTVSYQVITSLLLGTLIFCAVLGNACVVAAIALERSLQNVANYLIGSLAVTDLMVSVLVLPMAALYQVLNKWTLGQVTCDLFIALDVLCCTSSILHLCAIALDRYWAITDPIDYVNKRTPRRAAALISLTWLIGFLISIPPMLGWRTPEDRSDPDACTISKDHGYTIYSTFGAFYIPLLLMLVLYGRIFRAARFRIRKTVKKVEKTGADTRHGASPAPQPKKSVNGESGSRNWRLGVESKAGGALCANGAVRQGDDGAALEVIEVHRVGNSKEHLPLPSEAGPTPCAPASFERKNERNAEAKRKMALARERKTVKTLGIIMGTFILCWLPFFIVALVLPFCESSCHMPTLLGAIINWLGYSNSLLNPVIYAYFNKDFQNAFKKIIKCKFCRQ
The test can be described thus: Radioligand binding affinity assay, 5-HT1A.

For a further test, the target named is 5-HT1B (Homo sapiens, UniProt P28222). Kind of test: Radioligand binding affinity assay, 5-HT1B.
Chain of 5-HT1B (P28222 whole entry, species assumed): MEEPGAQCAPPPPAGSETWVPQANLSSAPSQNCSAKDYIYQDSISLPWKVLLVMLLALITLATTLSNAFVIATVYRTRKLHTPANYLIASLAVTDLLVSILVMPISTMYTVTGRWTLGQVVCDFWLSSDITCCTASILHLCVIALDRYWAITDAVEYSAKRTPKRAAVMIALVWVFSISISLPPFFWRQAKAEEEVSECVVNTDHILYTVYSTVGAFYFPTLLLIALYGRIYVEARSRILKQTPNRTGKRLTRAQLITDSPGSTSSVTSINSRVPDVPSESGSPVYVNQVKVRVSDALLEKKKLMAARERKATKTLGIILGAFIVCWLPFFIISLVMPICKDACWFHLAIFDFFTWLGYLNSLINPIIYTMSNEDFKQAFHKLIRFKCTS
In a further test the target is 5-HT1D (Homo sapiens, UniProt P28221). Kind of test: Radioligand binding affinity assay, 5-HT1D.
Chain of 5-HT1D (P28221 whole entry, species assumed): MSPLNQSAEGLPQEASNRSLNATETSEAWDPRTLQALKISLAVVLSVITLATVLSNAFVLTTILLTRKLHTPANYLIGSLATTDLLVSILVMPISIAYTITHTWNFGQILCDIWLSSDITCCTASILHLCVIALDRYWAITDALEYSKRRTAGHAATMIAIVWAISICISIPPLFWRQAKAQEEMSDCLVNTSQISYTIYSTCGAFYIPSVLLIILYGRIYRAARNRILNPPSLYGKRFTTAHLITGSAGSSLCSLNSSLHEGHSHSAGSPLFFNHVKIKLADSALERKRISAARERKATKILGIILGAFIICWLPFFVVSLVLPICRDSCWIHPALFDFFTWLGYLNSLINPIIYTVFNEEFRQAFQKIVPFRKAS
The target of a further test is 5-HT2B (Homo sapiens, UniProt P41595). Kind of test: Radioligand binding affinity assay, 5-HT2B.
A further test deals with T4, 5-HT3 (Homo sapiens, UniProt P46098).
T4 sequence (P46098 24-478): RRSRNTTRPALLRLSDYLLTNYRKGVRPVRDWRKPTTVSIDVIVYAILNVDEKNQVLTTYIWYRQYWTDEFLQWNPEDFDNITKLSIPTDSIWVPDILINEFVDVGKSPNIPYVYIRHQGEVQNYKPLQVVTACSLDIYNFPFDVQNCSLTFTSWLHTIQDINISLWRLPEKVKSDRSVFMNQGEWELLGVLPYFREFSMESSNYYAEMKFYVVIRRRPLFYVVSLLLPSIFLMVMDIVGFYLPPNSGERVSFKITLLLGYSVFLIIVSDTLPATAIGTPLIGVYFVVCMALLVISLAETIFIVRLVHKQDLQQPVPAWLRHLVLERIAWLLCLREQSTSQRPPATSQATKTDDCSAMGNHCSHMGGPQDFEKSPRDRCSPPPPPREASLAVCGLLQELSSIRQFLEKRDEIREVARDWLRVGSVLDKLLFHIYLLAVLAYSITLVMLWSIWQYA
The test can be described thus: Radioligand binding affinity assay, 5-HT3.

A further test has as its target 5-HT4 (Homo sapiens, UniProt Q13639). The test can be described thus: Radioligand binding affinity assay, 5-HT4.
For the next test, the target named is 5-HT5A (Homo sapiens, UniProt P47898). The test can be described thus: Radioligand binding affinity assay, 5-HT5A.
Chain of 5-HT5A (P47898 whole entry, species assumed): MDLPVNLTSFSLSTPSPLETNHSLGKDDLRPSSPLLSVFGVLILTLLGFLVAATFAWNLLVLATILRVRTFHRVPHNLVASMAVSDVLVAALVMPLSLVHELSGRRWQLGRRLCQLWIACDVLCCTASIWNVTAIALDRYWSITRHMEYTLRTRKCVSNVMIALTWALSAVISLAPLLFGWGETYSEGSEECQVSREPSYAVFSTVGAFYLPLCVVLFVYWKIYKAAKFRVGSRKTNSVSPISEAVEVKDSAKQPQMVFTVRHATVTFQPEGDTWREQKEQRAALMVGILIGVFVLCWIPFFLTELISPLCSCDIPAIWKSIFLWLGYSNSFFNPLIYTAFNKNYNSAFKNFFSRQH
In a further test the target is 5-HT6 (Homo sapiens, UniProt P50406). Kind of test: Radioligand binding affinity assay, 5-HT6.
Chain of 5-HT6 (P50406 whole entry, species assumed): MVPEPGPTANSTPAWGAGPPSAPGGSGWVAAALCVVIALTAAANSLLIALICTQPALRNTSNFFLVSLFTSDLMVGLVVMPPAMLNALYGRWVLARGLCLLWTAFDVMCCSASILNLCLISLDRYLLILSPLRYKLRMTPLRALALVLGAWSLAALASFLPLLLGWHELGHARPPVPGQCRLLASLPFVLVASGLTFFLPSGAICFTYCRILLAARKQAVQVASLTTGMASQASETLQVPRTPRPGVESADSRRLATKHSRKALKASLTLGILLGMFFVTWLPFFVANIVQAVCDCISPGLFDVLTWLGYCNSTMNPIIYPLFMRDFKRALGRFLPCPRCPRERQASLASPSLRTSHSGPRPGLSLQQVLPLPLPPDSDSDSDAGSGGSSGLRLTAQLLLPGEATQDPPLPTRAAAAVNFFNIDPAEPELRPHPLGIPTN
The target in another test is 5-HT7A (Homo sapiens, UniProt P34969). The test can be described thus: Radioligand binding affinity assay, 5-HT7A.
A further test addresses T5, Alpha1B (Homo sapiens, UniProt P35368).
T5 sequence (P35368 1-520): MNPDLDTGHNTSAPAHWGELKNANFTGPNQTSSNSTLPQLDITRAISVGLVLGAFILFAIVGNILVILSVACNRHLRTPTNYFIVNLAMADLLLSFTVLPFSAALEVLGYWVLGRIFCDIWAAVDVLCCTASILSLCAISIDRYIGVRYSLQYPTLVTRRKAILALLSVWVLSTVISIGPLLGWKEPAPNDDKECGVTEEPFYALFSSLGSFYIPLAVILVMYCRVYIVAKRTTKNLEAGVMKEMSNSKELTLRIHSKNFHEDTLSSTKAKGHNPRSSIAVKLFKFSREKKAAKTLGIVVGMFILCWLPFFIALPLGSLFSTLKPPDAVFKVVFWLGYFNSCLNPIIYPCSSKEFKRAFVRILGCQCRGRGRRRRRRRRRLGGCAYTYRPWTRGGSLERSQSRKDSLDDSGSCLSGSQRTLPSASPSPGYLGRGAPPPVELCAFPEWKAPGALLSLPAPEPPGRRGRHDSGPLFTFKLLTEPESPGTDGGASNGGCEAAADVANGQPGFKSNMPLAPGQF
Kind of test: Radioligand binding affinity assay, Alpha1B.

The target of the next test is Beta1 (Homo sapiens, UniProt P08588). Kind of test: Radioligand binding affinity assay, Beta1.
Chain of Beta1 (P08588 whole entry): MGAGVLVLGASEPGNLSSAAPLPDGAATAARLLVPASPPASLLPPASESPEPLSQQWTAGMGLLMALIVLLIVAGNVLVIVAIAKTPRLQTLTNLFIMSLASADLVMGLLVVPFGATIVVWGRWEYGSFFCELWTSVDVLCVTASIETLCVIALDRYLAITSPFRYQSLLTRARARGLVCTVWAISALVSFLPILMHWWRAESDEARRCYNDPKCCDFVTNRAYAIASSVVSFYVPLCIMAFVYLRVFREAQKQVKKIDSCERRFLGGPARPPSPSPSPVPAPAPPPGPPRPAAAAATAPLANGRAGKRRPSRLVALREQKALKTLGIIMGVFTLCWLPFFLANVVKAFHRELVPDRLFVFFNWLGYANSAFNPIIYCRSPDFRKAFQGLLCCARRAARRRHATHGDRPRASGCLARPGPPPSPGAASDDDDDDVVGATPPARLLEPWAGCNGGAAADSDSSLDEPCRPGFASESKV
For another test, the target named is Beta2 (Homo sapiens, UniProt P07550). The test can be described thus: Radioligand binding affinity assay, Beta2.
Chain of Beta2 (P07550 whole entry): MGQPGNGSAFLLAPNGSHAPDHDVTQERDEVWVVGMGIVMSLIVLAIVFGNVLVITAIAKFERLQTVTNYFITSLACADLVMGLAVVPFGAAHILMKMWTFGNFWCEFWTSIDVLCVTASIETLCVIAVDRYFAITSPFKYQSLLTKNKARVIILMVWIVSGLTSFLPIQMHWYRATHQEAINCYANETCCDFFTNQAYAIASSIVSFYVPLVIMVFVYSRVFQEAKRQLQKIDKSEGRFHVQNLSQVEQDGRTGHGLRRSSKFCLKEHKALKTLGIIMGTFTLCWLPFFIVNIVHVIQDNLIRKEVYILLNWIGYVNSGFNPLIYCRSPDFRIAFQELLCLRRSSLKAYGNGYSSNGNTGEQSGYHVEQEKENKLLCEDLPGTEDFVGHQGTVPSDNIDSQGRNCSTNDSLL
A further test concerns the target MOR (Homo sapiens, UniProt P35372). The test can be described thus: Radioligand binding affinity assay, MOR.
The next test concerns the target H1 (Homo sapiens, UniProt P35367). The test can be described thus: Radioligand binding affinity assay, H1.
In another test the target is H2 (Homo sapiens, UniProt P25021). The test can be described thus: Radioligand binding affinity assay, H2.
Chain of H2 (P25021 whole entry): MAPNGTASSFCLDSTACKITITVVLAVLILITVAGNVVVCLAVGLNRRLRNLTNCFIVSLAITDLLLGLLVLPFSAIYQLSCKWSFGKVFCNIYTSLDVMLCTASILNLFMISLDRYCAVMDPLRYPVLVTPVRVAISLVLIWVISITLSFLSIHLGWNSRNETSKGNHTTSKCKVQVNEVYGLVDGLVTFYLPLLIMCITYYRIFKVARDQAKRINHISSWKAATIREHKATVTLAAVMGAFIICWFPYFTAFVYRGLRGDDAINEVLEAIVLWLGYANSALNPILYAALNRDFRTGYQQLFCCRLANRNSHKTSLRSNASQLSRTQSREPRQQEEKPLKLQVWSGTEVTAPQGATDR
Another test addresses DAT (Homo sapiens, UniProt Q01959). Kind of test: Radioligand binding affinity assay, DAT.
Another test addresses SERT (Homo sapiens, UniProt P31645). The test can be described thus: Radioligand binding affinity assay, SERT.

Chain of MOR (P35372 whole entry): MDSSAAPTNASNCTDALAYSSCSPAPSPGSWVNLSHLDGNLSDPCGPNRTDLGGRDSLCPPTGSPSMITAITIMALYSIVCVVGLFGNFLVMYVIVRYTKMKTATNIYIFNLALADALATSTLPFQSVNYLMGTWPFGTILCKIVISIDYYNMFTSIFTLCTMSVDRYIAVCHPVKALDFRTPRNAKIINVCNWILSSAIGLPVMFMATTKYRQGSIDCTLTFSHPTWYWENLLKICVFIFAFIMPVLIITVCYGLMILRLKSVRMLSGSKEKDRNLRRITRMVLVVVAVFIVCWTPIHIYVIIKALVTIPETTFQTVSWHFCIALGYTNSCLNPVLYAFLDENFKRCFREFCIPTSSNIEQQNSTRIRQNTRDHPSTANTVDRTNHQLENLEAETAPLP
Chain of 5-HT4 (Q13639 whole entry, species assumed): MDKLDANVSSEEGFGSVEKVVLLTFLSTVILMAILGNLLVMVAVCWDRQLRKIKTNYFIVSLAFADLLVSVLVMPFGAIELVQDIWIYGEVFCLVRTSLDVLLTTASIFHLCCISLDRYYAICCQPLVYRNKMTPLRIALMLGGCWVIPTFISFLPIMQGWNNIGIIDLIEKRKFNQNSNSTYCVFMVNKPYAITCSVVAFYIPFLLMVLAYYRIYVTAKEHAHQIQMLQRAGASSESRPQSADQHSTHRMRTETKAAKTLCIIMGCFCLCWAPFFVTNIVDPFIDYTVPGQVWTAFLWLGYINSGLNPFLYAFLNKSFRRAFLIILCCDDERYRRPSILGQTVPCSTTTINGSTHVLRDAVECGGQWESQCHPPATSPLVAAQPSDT
Chain of D3 (P35462 whole entry): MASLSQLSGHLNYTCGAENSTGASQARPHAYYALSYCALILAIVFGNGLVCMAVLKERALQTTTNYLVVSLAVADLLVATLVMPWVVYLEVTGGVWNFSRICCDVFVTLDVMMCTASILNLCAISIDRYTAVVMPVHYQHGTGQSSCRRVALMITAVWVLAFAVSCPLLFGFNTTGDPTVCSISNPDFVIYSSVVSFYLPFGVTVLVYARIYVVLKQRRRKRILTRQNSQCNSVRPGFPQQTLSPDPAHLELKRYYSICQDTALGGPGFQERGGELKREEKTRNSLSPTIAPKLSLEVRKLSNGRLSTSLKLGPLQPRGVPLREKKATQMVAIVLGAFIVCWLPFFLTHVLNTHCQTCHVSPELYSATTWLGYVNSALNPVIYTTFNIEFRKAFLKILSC

For `Cc1cc(Oc2nccc3occc23)ccc1-c1c(C)c(=O)[nH]c(=O)n1C1CC1` [Compound 18, 1-Cyclopropyl-6-(4-(furo[3,2-c]pyridin-4-yloxy)-2-methylphenyl)-5-methylpyrimidine-2,4(1H,3H)-dione], on D1 [1], the concentration for a half-maximal effect (EC50) stood at 0.06 nM. In addition, the Emax at D1 [1] (read-out: GS-cAMP EMAX) stood at 90%. Further, the Ki on D1 [2] was 0.01 µM; at D3, more than 10 µM; at D4, more than 10 µM; at D5, 0.015 µM; at 5-HT1A it was more than 10 µM; at 5-HT1B, more than 10 µM. The inhibitory constant (Ki) on 5-HT1D, on 5-HT2B, at 5-HT3, on 5-HT4, at 5-HT5A and on 5-HT6 was more than 10 µM throughout. The Ki on 5-HT7A, on Alpha1B, on Beta1, on Beta2, on MOR and at H1 was more than 10 µM in each case. Moreover, the Ki on H2, on DAT and at SERT was more than 10 µM throughout.
